Test results from the kinase profiling compilation of Christmann-Franck et al. (2016).

Key:
Assay in all cases: KINOMEscan competition binding
Conditions in all cases: compound 10.0 µM
CDC42BPG (human) = CDC42BPG (human) (UniProt Q6DT37)
CDK13 (human) = CDK13 (human) (UniProt Q14004)
CDK15 (human) = CDK15 (human) (UniProt Q96Q40)
CDK19 (human) = CDK19 (human) (UniProt Q9BWU1)
CDK9 (human) = CDK9 (human) (UniProt P50750)
CDKL3 (human) = CDKL3 (human) (UniProt Q8IVW4)
CDKL5 (human) = CDKL5 (human) (UniProt O76039)
CHUK (human) = CHUK (human) (UniProt O15111)
CLK1 (human) = CLK1 (human) (UniProt P49759)
CSNK1D (human) = CSNK1D (human) (UniProt P48730)
CSNK1G1 (human) = CSNK1G1 (human) (UniProt Q9HCP0)
DCLK2 (human) = DCLK2 (human) (UniProt Q8N568)
Chain of DCLK2 (human) (Q8N568 whole entry, looked up): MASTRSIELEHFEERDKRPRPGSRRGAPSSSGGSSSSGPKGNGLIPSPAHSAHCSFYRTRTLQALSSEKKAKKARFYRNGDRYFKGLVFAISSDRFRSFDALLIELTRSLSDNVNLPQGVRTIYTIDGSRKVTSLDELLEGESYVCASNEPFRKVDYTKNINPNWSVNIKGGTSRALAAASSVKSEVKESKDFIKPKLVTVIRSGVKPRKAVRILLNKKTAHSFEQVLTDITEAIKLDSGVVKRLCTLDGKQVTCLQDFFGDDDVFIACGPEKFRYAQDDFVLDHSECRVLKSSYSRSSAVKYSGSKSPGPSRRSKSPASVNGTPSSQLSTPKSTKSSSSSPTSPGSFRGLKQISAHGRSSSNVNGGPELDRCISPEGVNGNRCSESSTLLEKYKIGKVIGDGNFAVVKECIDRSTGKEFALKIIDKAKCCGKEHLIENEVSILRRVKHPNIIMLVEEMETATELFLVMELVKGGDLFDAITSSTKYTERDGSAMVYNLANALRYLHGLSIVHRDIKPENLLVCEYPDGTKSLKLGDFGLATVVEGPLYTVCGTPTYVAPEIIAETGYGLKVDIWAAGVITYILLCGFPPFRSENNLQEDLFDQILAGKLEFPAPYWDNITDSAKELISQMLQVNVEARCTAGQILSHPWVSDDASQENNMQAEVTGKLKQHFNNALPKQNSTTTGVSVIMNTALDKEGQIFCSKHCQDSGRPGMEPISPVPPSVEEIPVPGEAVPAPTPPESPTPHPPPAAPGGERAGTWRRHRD

EPHA4 (human) = EPHA4 (human) (UniProt P54764)
HIPK4 (human) = HIPK4 (human) (UniProt Q8NE63)
IRAK4 (human) = IRAK4 (human) (UniProt Q9NWZ3)
LCK (human) = LCK (human) (UniProt P06239)
[1] = test system: LRRK2 (human), Q5S007 [G2019S]
MAP2K3 (human) = MAP2K3 (human) (UniProt P46734)
MAP3K5 (human) = MAP3K5 (human) (UniProt Q99683)
MAPK6 (human) = MAPK6 (human) (UniProt Q16659)
MST4 (human) = MST4 (human) (UniProt Q9P289)
MTOR (human) = MTOR (human) (UniProt P42345)
MYLK2 (human) = MYLK2 (human) (UniProt Q9H1R3)
PDGFRB (human) = PDGFRB (human) (UniProt P09619)
PDPK1 (human) = PDPK1 (human) (UniProt O15530)
PIK3CA (human) = PIK3CA (human) (UniProt P42336)
PIK3CB (human) = PIK3CB (human) (UniProt P42338)
Chain of PIK3CB (human) (P42338 whole entry, looked up): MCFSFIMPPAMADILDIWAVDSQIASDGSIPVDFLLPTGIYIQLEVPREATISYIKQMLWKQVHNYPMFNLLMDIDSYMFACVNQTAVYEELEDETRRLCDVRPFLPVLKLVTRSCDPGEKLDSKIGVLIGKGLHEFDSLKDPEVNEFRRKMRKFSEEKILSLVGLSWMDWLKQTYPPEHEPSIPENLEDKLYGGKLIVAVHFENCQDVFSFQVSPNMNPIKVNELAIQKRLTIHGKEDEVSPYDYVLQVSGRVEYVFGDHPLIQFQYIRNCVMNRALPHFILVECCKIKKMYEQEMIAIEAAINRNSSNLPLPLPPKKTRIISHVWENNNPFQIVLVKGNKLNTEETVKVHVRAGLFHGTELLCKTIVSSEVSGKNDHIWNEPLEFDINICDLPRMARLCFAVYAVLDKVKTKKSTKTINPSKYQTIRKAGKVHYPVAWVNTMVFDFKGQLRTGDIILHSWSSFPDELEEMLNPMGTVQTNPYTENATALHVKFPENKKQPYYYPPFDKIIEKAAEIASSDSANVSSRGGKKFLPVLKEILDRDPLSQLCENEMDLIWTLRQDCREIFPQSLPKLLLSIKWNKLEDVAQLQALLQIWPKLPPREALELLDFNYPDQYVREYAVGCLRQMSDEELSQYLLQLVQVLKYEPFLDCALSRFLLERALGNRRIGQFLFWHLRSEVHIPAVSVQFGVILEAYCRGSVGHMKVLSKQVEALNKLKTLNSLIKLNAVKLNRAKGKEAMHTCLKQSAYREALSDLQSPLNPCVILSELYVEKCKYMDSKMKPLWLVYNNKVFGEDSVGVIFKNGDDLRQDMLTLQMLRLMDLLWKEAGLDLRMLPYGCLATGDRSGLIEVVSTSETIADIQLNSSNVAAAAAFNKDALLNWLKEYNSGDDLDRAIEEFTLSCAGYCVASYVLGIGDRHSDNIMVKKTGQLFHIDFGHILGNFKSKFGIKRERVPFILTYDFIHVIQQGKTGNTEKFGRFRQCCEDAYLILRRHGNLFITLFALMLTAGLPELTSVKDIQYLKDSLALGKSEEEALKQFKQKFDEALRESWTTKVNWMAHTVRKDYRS

PIK3CG (human) = PIK3CG (human) (UniProt P48736)
PIM3 (human) = PIM3 (human) (UniProt Q86V86)
PTK2 (human) = PTK2 (human) (UniProt Q05397)
PTK6 (human) = PTK6 (human) (UniProt Q13882)
Chain of PTK6 (human) (Q13882 whole entry, looked up): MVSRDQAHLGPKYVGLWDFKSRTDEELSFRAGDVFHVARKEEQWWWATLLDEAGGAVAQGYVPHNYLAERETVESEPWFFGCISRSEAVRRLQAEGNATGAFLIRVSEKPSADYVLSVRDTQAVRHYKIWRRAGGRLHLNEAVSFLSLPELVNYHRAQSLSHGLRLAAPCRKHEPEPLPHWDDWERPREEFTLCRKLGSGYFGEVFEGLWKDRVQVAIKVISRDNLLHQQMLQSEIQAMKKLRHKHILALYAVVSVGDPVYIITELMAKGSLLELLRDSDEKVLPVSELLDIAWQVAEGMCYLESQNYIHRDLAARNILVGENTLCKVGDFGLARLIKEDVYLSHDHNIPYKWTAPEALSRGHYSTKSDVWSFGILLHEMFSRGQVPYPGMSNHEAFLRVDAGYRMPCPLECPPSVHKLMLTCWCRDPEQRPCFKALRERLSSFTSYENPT

RPS6KA2 KD1 (human) = RPS6KA2 KD1 (human) (UniProt Q15349)
RPS6KA5 KD1 (human) = RPS6KA5 KD1 (human) (UniProt O75582)
STK17B (human) = STK17B (human) (UniProt O94768)
Chain of STK17B (human) (O94768 whole entry, looked up): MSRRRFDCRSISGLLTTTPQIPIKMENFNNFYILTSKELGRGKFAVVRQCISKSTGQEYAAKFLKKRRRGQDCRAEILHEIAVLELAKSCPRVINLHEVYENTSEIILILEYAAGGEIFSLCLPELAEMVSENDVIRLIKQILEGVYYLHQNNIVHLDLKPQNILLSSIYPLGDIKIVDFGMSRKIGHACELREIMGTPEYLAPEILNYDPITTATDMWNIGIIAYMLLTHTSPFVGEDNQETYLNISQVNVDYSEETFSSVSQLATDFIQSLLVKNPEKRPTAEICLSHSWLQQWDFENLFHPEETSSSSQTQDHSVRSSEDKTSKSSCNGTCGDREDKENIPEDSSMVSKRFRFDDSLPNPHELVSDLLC

STK32A (human) = STK32A (human) (UniProt Q8WU08)
STK36 (human) = STK36 (human) (UniProt Q9NRP7)
TAOK3 (human) = TAOK3 (human) (UniProt Q9H2K8)
TBK1 (human) = TBK1 (human) (UniProt Q9UHD2)
Chain of TBK1 (human) (Q9UHD2 whole entry, looked up): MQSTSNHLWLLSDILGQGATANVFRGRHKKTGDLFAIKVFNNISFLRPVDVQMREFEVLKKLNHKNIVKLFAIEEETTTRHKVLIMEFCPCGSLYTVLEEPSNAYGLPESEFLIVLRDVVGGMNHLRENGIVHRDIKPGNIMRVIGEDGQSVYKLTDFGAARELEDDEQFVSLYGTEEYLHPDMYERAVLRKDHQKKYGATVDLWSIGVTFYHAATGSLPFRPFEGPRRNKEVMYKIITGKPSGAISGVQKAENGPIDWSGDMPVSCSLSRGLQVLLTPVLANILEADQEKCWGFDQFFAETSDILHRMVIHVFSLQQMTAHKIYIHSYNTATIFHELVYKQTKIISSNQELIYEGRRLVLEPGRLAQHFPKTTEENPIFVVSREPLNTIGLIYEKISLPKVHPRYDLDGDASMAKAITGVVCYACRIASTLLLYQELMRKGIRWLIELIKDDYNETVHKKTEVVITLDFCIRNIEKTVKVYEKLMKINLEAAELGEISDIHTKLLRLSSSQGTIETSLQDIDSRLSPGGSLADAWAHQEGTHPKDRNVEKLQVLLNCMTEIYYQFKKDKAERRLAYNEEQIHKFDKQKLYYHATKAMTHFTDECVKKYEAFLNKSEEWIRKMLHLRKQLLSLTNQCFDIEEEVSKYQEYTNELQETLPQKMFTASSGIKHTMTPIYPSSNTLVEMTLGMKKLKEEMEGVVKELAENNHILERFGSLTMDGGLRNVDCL

TTK (human) = TTK (human) (UniProt P33981)
ZAP70 (human) = ZAP70 (human) (UniProt P43403)

Chain of CDK13 (human) (Q14004 whole entry, looked up): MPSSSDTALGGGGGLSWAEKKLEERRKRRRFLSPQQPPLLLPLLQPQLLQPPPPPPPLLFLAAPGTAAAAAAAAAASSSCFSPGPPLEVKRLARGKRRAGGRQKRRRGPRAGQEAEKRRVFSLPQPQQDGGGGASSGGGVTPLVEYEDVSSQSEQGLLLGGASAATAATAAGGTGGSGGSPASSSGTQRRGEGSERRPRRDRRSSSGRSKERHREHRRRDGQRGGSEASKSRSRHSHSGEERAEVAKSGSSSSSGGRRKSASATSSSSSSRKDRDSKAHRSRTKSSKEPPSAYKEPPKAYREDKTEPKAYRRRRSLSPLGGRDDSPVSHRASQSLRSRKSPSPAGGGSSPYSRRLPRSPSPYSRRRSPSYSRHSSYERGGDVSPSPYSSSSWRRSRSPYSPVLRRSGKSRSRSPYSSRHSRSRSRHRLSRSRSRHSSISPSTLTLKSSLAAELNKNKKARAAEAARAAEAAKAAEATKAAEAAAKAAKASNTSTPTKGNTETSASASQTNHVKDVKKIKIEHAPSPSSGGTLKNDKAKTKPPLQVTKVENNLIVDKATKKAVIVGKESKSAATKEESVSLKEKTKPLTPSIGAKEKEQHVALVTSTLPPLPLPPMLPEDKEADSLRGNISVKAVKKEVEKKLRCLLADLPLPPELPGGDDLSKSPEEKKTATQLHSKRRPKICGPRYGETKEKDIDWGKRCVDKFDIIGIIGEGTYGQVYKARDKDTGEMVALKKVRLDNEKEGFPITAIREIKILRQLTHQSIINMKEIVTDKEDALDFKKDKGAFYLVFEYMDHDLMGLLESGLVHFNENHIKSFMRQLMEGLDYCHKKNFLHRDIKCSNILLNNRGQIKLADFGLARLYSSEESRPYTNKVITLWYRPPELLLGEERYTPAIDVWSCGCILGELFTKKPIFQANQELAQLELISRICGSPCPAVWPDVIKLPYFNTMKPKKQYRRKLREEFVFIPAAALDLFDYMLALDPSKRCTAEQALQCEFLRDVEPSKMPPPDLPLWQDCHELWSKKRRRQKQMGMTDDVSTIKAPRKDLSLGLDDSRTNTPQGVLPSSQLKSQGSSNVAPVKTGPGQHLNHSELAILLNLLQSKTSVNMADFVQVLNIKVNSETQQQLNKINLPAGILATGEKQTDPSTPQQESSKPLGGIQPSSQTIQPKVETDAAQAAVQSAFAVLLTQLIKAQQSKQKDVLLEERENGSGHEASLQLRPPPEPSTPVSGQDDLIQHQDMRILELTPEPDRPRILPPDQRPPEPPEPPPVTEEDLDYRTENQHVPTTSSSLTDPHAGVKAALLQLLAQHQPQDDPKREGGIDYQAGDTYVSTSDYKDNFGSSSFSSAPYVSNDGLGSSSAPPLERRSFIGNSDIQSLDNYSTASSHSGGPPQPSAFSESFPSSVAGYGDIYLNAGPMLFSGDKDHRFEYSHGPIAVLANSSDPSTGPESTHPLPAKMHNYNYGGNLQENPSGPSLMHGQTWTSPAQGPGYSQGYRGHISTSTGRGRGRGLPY

Compound | kinase still bound, per cent of control (CDC42BPG (human)) [%] | kinase still bound, per cent of control (CDK13 (human)) [%] | kinase still bound, per cent of control (CDK15 (human)) [%] | kinase still bound, per cent of control (CDK19 (human)) [%] | kinase still bound, per cent of control (CDK9 (human)) [%] | kinase still bound, per cent of control (CDKL3 (human)) [%] | kinase still bound, per cent of control (CDKL5 (human)) [%] | kinase still bound, per cent of control (CHUK (human)) [%] | kinase still bound, per cent of control (CLK1 (human)) [%] | kinase still bound, per cent of control (CSNK1D (human)) [%] | kinase still bound, per cent of control (CSNK1G1 (human)) [%] | kinase still bound, per cent of control (DCLK2 (human)) [%] | kinase still bound, per cent of control (EPHA4 (human)) [%] | kinase still bound, per cent of control (HIPK4 (human)) [%] | kinase still bound, per cent of control (IRAK4 (human)) [%] | kinase still bound, per cent of control (LCK (human)) [%] | kinase still bound, per cent of control [1] [%] | kinase still bound, per cent of control (MAP2K3 (human)) [%] | kinase still bound, per cent of control (MAP3K5 (human)) [%] | kinase still bound, per cent of control (MAPK6 (human)) [%] | further results
CCc1nc(-c2cccc(C)c2)c(-c2ccnc(NC(=O)c3ccccc3)c2)s1 | 15 | 100 | 95 | 91 | 95 | 81 | 100 | 100 | 92 | 2 | 28 | 98 | 94 | 97 | 100 | 41 | 100 | 96 | 100 | 85 | kinase still bound, per cent of control (MST4 (human)): 100%; kinase still bound, per cent of control (MTOR (human)): 100%; kinase still bound, per cent of control (MYLK2 (human)): 96%; kinase still bound, per cent of control (PDGFRB (human)): 34%; kinase still bound, per cent of control (PDPK1 (human)): 89%; kinase still bound, per cent of control (PIK3CA (human)): 100%; kinase still bound, per cent of control (PIK3CB (human)): 95%; kinase still bound, per cent of control (PIK3CG (human)): 100%; kinase still bound, per cent of control (PIM3 (human)): 86%; kinase still bound, per cent of control (PTK2 (human)): 96%; kinase still bound, per cent of control (PTK6 (human)): 30%; kinase still bound, per cent of control (RPS6KA2 KD1 (human)): 100%; kinase still bound, per cent of control (RPS6KA5 KD1 (human)): 100%; kinase still bound, per cent of control (STK17B (human)): 91%; kinase still bound, per cent of control (STK32A (human)): 9%; kinase still bound, per cent of control (STK36 (human)): 4.8%; kinase still bound, per cent of control (TAOK3 (human)): 86%; kinase still bound, per cent of control (TBK1 (human)): 100%; kinase still bound, per cent of control (TTK (human)): 70%; kinase still bound, per cent of control (ZAP70 (human)): 100%
CCN1CCN(Cc2ccc(NC(=O)c3ccc(C)c(/C=C/c4cnc5[nH]ccc5c4OC)c3)cc2C(F)(F)F)CC1 | 16 | 100 | 36 | 4.2 | 96 | 4 | 78 | 0 | 14 | 38 | 98 | 100 | 0 | 5.5 | 48 | 0.15 | 18 | 68 | 35 | 100 | kinase still bound, per cent of control (MST4 (human)): 18%; kinase still bound, per cent of control (MTOR (human)): 100%; kinase still bound, per cent of control (MYLK2 (human)): 0.55%; kinase still bound, per cent of control (PDGFRB (human)): 0.05%; kinase still bound, per cent of control (PDPK1 (human)): 65%; kinase still bound, per cent of control (PIK3CA (human)): 100%; kinase still bound, per cent of control (PIK3CB (human)): 100%; kinase still bound, per cent of control (PIK3CG (human)): 96%; kinase still bound, per cent of control (PIM3 (human)): 100%; kinase still bound, per cent of control (PTK2 (human)): 67%; kinase still bound, per cent of control (PTK6 (human)): 9.6%; kinase still bound, per cent of control (RPS6KA2 KD1 (human)): 2.7%; kinase still bound, per cent of control (RPS6KA5 KD1 (human)): 34%; kinase still bound, per cent of control (STK17B (human)): 1%; kinase still bound, per cent of control (STK32A (human)): 100%; kinase still bound, per cent of control (STK36 (human)): 0.3%; kinase still bound, per cent of control (TAOK3 (human)): 0%; kinase still bound, per cent of control (TBK1 (human)): 55%; kinase still bound, per cent of control (TTK (human)): 6.8%; kinase still bound, per cent of control (ZAP70 (human)): 52%
